Measured values as given in patent US20260097137A1, “FLUORESCENT PROBE COMPOUNDS FOR TUMOR TARGETING IMAGING, AND SYNTHESIS METHOD THEREFOR” (HEBEI MEDICAL UNIVERSITY, priority 2023, published 2026).
One block for each compound: values may come before it.

How the values were obtained:
M1 macrophages = assay: In vitro fluorescence microscopy assay, FR- M1-type macrophages; format: cell-based; conditions: probe 1 μM, 30 minutes
Procedure: (§1) To investigate the targeting capability of compound GT-NIR-1 toward folate receptor-expressing cells and its subcellular localization, FR^+ KB cells, FR^− A549 cells, FR^+ M2-type macrophages, and FR^− M1-type macrophages were seeded in confocal-specific culture dishes at a density of 3×10^5 cells per dish. The cells were cultured at 37° C. under 5% CO2 for 24 hours. Subsequently, the cells were incubated with GT-NIR-1 (1 μM) for 30 minutes. For competitive binding assays, KB cells and M2 macrophages were co-treated with a 100-fold excess of folic acid (100 μM) and GT-NIR-1 (1 μM) for 30 minutes. After incubation, all cells were washed three times with PBS (pH=7.4). Fluorescence was excited at 775 nm, and cellular fluorescence imaging was observed using confocal fluorescence microscopy (FIG. 4 and FIG. 5).

FRβ (in M2 macrophages) = molecular target: T1, FRβ (in M2 macrophages) (Homo sapiens, UniProt P14207); assay: In vitro fluorescence microscopy assay, FR+ M2-type macrophages; format: cell-based; conditions: probe 1 μM, 30 minutes, excitation 775 nm
T1 construct: endogenous in cells
Procedure: as §1

FRα (in KB cells) = molecular target: T2, FRα (in KB cells) (Homo sapiens, UniProt P15328); assay: In vitro fluorescence microscopy assay, FR+ KB cells; format: cell-based; conditions: probe 1 μM, 30 minutes, excitation 775 nm
T2 construct: endogenous in cells; host or cells: KB cells
Procedure: as §1

A549 cells = assay: In vitro fluorescence microscopy assay, FR- A549 cells; format: cell-based; conditions: probe 1 μM, 30 minutes
Procedure: as §1

[1] = system: FR-positive KB xenografts; assay: In vivo small animal imaging, FR+ KB cell xenografts; parameters: species or system mice; conditions: KB xenograft competition group, 100× excess folic acid
Procedure: (§2) Subcutaneous tumor models were established using FR^+ KB cell xenografts and FR A549 cell xenografts. The A549 xenograft model served as the negative control group, while a competition group was included to validate the in vivo targeting specificity of the probes toward tissues with high folate receptor expression. When tumor volumes reached 300-400 mm^3, the following treatments were administered via tail vein injection: • Blank control group: 100 μL saline; • Experimental groups: respective probes (10 nmol, dissolved in 100 μL saline); • Competition group: pre-injection of 100× excess folic acid ([…] in 100 μL saline) 15 minutes prior to probe administration (10 nmol in 100 μL saline).
(§3) Whole-body fluorescence imaging was performed using an IVIS imaging system with 750-800 nm excitation light at 2, 4, 8, 12, 24, and 48 hours post-injection. At 8 hours after systemic imaging, the mice were euthanized, and organs were collected for ex vivo tissue biodistribution analysis using the IVIS system.
The in vivo imaging capability of the GT-IR series compounds was evaluated in the FR^+ KB cell xenograft model following the same experimental procedure. Imaging was performed at 8 hours post-injection using the IVIS system with 750-800 nm excitation light. After euthanasia, organs were collected and subjected to ex vivo biodistribution analysis.

[2] = system: FR-negative A549 xenograft; assay: In vivo small animal imaging, FR-negative A549 cell xenografts; parameters: species or system mice; conditions: A549 xenograft negative control group, 10 nmol tail vein
Procedure: as §2, §3

FRβ = molecular target: T3, FRβ (Homo sapiens, UniProt P14207); assay: In vitro affinity assay of GT-NIR series probes by flow cytometry, M2 macrophages; format: cell-based; conditions: 500 nM, 1 hour, order GT-NIR-5 > GT-NIR-4 > GT-NIR-1
T3 construct: endogenous in cells
Procedure: (§4) To compare the targeting affinity of different compounds in the GT-NIR series for folate receptors, FR^+ KB cells and M2 macrophages were seeded in 6-well plates at a density of 1×10^6 cells per well. After 24 hours of culture, the medium was replaced with folate-free fresh medium as a blank control. IR783 (500 nM) was added to exclude false-positive effects. Media containing GT-NIR series compounds (500 nM) were added to different wells and incubated for 1 hour. The cells were then digested with trypsin, washed three times with PBS (pH=7.4), and centrifuged (2000 rpm, 5 minutes) to remove unbound probes. The cells were resuspended in […] PBS, stored in light-protected BD Falcon tubes, and analyzed by flow cytometry. Statistical data were processed using FlowJo software (FIG. 6 and FIG. 7).

FRα = molecular target: T4, FRα (Homo sapiens, UniProt P15328); assay: In vitro affinity assay of GT-NIR series probes by flow cytometry, KB cells; format: cell-based; conditions: 500 nM, 1 hour, order GT-NIR-5 > GT-NIR-4 > GT-NIR-1
T4 construct: endogenous in cells; host or cells: KB cells
Procedure: as §4

[3] = system: tumors with high folate receptor expression; conditions: e.g., ovarian cancer, non-small cell lung cancer; background statement; cited from earlier work
folate receptors = conditions: background statement; cited from earlier work

T4 sequence (P15328 25-234): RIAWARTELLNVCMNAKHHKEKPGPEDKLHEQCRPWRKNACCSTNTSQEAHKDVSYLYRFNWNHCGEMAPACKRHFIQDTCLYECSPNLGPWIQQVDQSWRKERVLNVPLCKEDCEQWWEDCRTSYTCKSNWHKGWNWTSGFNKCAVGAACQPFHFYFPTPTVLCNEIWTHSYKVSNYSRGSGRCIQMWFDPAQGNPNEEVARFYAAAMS
T2 sequence (P15328 25-234): as above
T1 sequence (P14207 17-230, species assumed): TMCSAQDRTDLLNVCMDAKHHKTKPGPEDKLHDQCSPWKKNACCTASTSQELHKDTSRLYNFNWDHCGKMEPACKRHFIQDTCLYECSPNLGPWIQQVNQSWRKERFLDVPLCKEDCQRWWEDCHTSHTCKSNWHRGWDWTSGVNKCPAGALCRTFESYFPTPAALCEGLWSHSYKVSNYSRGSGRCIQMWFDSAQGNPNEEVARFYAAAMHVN
T3 sequence (P14207 17-230, species assumed): as above

Compound: CC1(C)C(/C=C/C2=C(Oc3ccc(C[C@H](NC(=O)CNC(=O)Cc4cc5c(=O)[nH]c(N)nc5[nH]4)C(=O)O)cc3)C(=C/C=C3/N(CCCCS(=O)(=O)O)c4ccccc4C3(C)C)/CCC2)=[N+](CCCCS(=O)(=O)[O-])c2ccccc21 [GT-NIR-1]
accumulation in folate receptor-negative cells (M1 macrophages): no accumulation was observed
cell entry / fluorescence imaging by confocal microscopy (FRβ (in M2 macrophages)): successfully entered cells via targeting folate receptors
cell entry / fluorescence imaging by confocal microscopy (FRα (in KB cells)): successfully entered cells via targeting folate receptors
accumulation in folate receptor-negative cells (A549 cells): no accumulation was observed

clearance from the body [1]: rapidly cleared from the body
clearance from the body [2]: rapidly cleared from the body
Compound: CC1(C)C(/C=C/C2=C(Oc3ccc(C[C@H](NC(=O)c4ccc(CCCCc5cc6c(=O)[nH]c(N)nc6[nH]5)cc4)C(=O)O)cc3)C(=C/C=C3/N(CCCCS(=O)(=O)O)c4ccccc4C3(C)C)/CCC2)=[N+](CCCCS(=O)(=O)[O-])c2ccccc21 [GT-NIR-4]
targeted tumor imaging, whole-body fluorescence [1]: no targeted tumor imaging was observed
targeted tumor imaging, whole-body fluorescence [2]: no targeted tumor imaging was observed

binding affinity for FRβ (rank order within GT-NIR series) (FRβ): highest binding affinity
binding affinity for FRα (rank order within GT-NIR series) (FRα): highest binding affinity
Compound: CC1(C)C(/C=C/C2=C(Oc3ccc(C[C@H](NC(=O)c4ccc(CCCCc5cc6c(=O)[nH]c(N)nc6[nH]5)s4)C(=O)O)cc3)C(=C/C=C3/N(CCCCS(=O)(=O)O)c4ccccc4C3(C)C)/CCC2)=[N+](CCCCS(=O)(=O)O)c2ccccc21 [GT-NIR-5]

Compound: CC1(C)C(/C=C/C2=C(Oc3ccc(C[C@H](NC(=O)c4ccc(NCc5cnc6nc(N)[nH]c(=O)c6n5)cc4)C(=O)[O-])cc3)C(=C/C=C3\N(CCCCS(=O)(=O)[O-])c4ccc(S(=O)(=O)[O-])cc4C3(C)C)/CCC2)=[N+](CCCCS(=O)(=O)[O-])c2ccc(S(=O)(=O)[O-])cc21.[H+].[H+].[H+].[H+] [OTL38]
tumor illumination and dye accumulation [3]: illuminates tumor tissue at significant depths

Compound: Nc1nc2ncc(CNc3ccc(C(=O)N[C@@H](CCC(=O)O)C(=O)O)cc3)nc2c(=O)[nH]1 [folic acid]
Kd (folate receptors): ~1 nM
